Laboratory results from ChEMBL document CHEMBL1833788, “Selective water-soluble gelatinase inhibitor prodrugs” (J Med Chem, 2011).

Assays:
Plasma [1] = assay: Metabolic stability of the compound in human plasma at 10 mM after 2 mins by reversed-phase HPLC/UV analysis; type: ADME, cell-free; details: 10000 µM
[2] = Solubility of the compound in aqueous solution at 10 mg/ml by UV spectroscopy; type: physicochemical
[3] = Chemical stability of the compound in aqueous solution at 10 mg/ml by HPLC up to 2 hrs; type: physicochemical; details: buffer
[4] = target: T1, Interstitial collagenase (Homo sapiens) (UniProt P03956); assay: Inhibition of human recombinant MMP1 catalytic domain assessed as hydrolysis of MOCAcPLGLA2pr(Dnp)AR-NH2 at 300 uM by fluorescence spectrofluorometry
T1 sequence (whole entry): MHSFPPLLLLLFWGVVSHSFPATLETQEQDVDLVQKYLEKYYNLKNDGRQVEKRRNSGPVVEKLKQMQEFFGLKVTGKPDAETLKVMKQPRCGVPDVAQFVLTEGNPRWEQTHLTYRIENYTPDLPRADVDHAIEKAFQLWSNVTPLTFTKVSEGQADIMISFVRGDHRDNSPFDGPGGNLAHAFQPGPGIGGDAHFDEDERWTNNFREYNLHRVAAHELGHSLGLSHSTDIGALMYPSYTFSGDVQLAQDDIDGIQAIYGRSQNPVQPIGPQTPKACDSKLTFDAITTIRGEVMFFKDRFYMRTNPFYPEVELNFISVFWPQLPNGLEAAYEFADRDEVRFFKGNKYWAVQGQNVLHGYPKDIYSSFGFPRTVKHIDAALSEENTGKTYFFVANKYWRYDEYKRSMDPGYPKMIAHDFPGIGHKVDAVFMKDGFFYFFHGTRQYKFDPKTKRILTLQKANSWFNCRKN

[5] = target: Stromelysin-1 (Homo sapiens) (UniProt P08254); assay: Inhibition of human recombinant MMP3 catalytic domain assessed as hydrolysis of MOCAcPLGLA2pr(Dnp)AR-NH2 at 300 uM fluorescence by spectrofluorometry
Liver microsomes [6] = assay: Half life in human liver microsomes at 100 uM by reversed-phase HPLC/UV analysis; type: ADME, Microsome
Liver = assay: Half life in mouse liver microsomes at 100 uM by reversed-phase HPLC/UV analysis; type: ADME, Microsome
Salmonella typhimurium [7] = assay: Induction of mutagenicity in Salmonella Typhimurium TA98 at 1 mg/mL after 48 hrs by Ames assay in presence of rat liver S9 metabolic activation system; type: toxicity, organism-based; details: salmonella enterica subsp. enterica serovar typhimurium, s9, 48 h
Salmonella typhimurium [8] = assay: Induction of mutagenicity in Salmonella Typhimurium TA7001 to TA7006 at 1 mg/mL after 48 hrs by Ames assay in presence of rat liver S9 metabolic activation system; type: toxicity, organism-based; details: salmonella enterica subsp. enterica serovar typhimurium, s9, 48 h
[9] = Apparent intrinsic clearance in human liver microsomes; type: ADME, Microsome
Liver microsomes [10] = assay: Prodrug conversion in rat liver microsomes assessed as release of 4-(4-{[(1-oxidothiiran-2-yl)methyl]sulfonyl}phenoxy)aniline after 30 mins by HPLC/MS analysis; type: ADME, Microsome; details: 0.5 h
Salmonella typhimurium [11] = assay: Induction of mutagenicity in Salmonella Typhimurium TA98 at 1 mg/mL after 48 hrs by Ames assay in absence of rat liver S9 metabolic activation system; type: toxicity, organism-based; details: salmonella enterica subsp. enterica serovar typhimurium, s9, 48 h
Liver microsomes [12] = assay: Prodrug conversion in rat liver microsomes assessed as release of 2-amino-5-(4-(thiiran-2-ylmethylsulfonyl)phenoxy)phenol after 30 mins by HPLC/MS analysis; type: ADME, Microsome; details: 0.5 h
Salmonella typhimurium [13] = assay: Induction of mutagenicity in Salmonella Typhimurium TA7001 to TA7006 at 1 mg/mL after 48 hrs by Ames assay in absence of rat liver S9 metabolic activation system; type: toxicity, organism-based; details: salmonella enterica subsp. enterica serovar typhimurium
Liver microsomes [14] = assay: Half life in rat liver microsomes at 100 uM by reversed-phase HPLC/UV analysis; type: ADME, Microsome
[15] = Chemical stability of the compound in aqueous solution at 10 mg/ml by HPLC after 1 month; type: physicochemical; details: buffer, 730.5 h
Blood [16] = assay: Half life in human blood at 10 mM by reversed-phase HPLC/UV analysis; type: ADME, tissue-based; details: 10000 µM
Plasma [17] = assay: Half life in human plasma at 10 mM by reversed-phase HPLC/UV analysis; type: ADME, cell-free; details: 10000 µM
Blood [18] = assay: Prodrug conversion in human blood assessed as release of 4-[4-((Thiiran-2-yl)methylsulphonyl)phenoxy]benzamine at 10 mM after 30 mins by reversed-phase HPLC/UV analysis; type: ADME, tissue-based; details: 0.5 h, 10000 µM

Chain of Stromelysin-1 (Homo sapiens) (P08254 100-477 limits assumed): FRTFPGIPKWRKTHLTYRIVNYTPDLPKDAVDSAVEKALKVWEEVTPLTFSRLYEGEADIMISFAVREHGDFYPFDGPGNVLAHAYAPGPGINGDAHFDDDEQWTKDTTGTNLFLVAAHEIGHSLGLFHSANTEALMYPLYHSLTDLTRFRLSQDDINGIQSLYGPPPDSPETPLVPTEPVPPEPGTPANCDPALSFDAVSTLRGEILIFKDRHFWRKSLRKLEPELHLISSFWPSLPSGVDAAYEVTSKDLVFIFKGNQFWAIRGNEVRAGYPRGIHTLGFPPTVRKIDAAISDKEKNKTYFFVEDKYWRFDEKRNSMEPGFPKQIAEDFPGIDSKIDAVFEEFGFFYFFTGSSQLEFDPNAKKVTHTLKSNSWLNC

Compound: N[C@@H](CCC(=O)O)C(=O)Oc1ccc(Oc2ccc(S(=O)(=O)CC3CS3)cc2)cc1 (stereo partly specified)
- Stability (Plasma [1]): Unstable
- solubility [2]: > 10000 µg/mL
- Stability [3]: Unstable

Compound: N=C(N)NCCC[C@H](N)C(=O)Oc1ccc(Oc2ccc(S(=O)(=O)CC3CS3)cc2)cc1 (stereo partly specified)
- Stability (Plasma [1]): Unstable
- solubility [2]: > 10000 µg/mL
- Stability [3]: Unstable

Compound: NCC(=O)Oc1ccc(Oc2ccc(S(=O)(=O)CC3CS3)cc2)cc1 (stereo unspecified)
- Stability (Plasma [1]): Unstable
- solubility [2]: > 10000 µg/mL
- Stability [3]: Unstable

Compound: Nc1ccc(Oc2ccc(S(=O)(=O)CC3CS3)cc2)cc1O (stereo unspecified)
- inhibition [4]: 11%
- inhibition [5]: 54%

Compound: Nc1ccc(Oc2ccc(S(=O)(=O)CC3CS3)cc2)cc1 (stereo unspecified)
- t1/2 (Liver microsomes [6]): > 60 min
- t1/2 (Liver): 27.3 min
- Activity (Salmonella typhimurium [7]): Non-toxic
- Activity (Salmonella typhimurium [8]): Non-toxic
- CLint scaled [9]: < 10 mL/min/kg
- Drug metabolism (Liver microsomes [10]): Active
- Activity (Salmonella typhimurium [11]): Non-toxic
- Drug metabolism (Liver microsomes [12]): Active
- Activity (Salmonella typhimurium [13]): Non-toxic
- t1/2 (Liver microsomes [14]): 23.4 min

Compound: NCC(=O)Nc1ccc(Oc2ccc(S(=O)(=O)CC3CS3)cc2)cc1 (stereo unspecified)
- Stability [15]: Stable
- solubility [2]: > 10000 µg/mL
- t1/2 (Blood [16]): 27.1 min
- t1/2 (Plasma [17]): 32.4 min
- Drug metabolism (Blood [18]): Active

Compound: NCCCC[C@H](N)C(=O)Nc1ccc(Oc2ccc(S(=O)(=O)CC3CS3)cc2)cc1 (stereo partly specified)
- Stability [15]: Stable
- solubility [2]: > 10000 µg/mL
- t1/2 (Blood [16]): 15.3 min
- t1/2 (Plasma [17]): 25.1 min
- Drug metabolism (Blood [18]): Active
